We go through 12 molecules from patent US9550796B2, “Pyrrolopyrrolone derivatives and their use as BET inhibitors” (NOVARTIS AG, priority 2013, dated 2017).

For one assay, the target named is CREBBP (Homo sapiens (Human), UniProt Q92793). The assay can be described thus: AlphaScreen in-vitro binding assay for CREBBP. Conditions: 324 nM His-CREBBP (1081-1197), acetyl-histone H4 (AcK 5, 8, 12) peptide. The essentials:
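IC50 values were derived by non-linear regression of percent inhibition across 8 compound concentrations. Protein was His-tagged CREBBP bromodomain (1081-1197), peptide acetyl-histone H4 (AcK 5, 8, 12), in HEPES pH 7.5 buffer. Read-out was AlphaScreen with Ni-chelate acceptor and streptavidin donor beads, 35 min at 30° C then 60 min at RT.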

In a further assay the target is BRD3 (Homo sapiens (Human), UniProt Q15059). The assay can be described thus: TR-FRET in-vitro binding assay for BRD3. To be noted: 45 nM His-Brd3(20-477), acetyl-histone H4 (AcK 5, 8, 12, 16) peptide. The gist of the method:
(§1)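 TR-FRET binding read after 35 min incubation at 30° C. Compounds dispensed from 90% DMSO solutions and tested at 8 concentrations in a 13.55 μL total reaction volume.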

A further assay deals with MV-4-11. The experiment in a line: Cell growth inhibition assay (CellTiter-Glo), MV-4-11. It is filed as cell-based, human. Conditions: MV-4-11 cells, 4 days; for GI50: Homo sapiens, MV4-11, 96 h, half-maximal growth inhibition; for MV-4-11 TGI: total growth inhibition. The essentials:
(§2)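 Seed cells in their own media; add compound as 3-fold dilutions from 10 μM (0.1% DMSO final). Incubate 4 days at 37 °C, 5% CO2, then add CTG and read luminescence. Subtract no-cell background, correct to a day 0 plate, and fit IC50 and TGI.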

The target of a further assay is BRD2 (Homo sapiens (Human), UniProt P25440). The experiment in a line: TR-FRET in-vitro binding assay for BRD2. To be noted: 45 nM His-Brd2(60-472), acetyl-histone H4 (AcK 5, 8, 12, 16) peptide. The gist of the method:
as §1

In another assay the test system is THP-1. The assay can be described thus: Cell growth inhibition assay (CellTiter-Glo), THP-1. It is filed as cell-based, human. To be noted: THP-1 cells, 4 days; for GI50: Homo sapiens, 96 h, half-maximal growth inhibition; for THP-1 TGI: total growth inhibition. The gist of the method: as §2
In another assay the target is BRD4 (Homo sapiens (Human), UniProt O60885). The experiment in a line: TR-FRET in-vitro binding assay for BRD4. Conditions: 45 nM His-Brd4(44-477), acetyl-histone H4 (AcK 5, 8, 12, 16) peptide. The essentials: as §1
The test system of a further assay is K-562. The experiment in a line: Cell growth inhibition assay (CellTiter-Glo), K-562. In kind it is cell-based, human. To be noted: K-562 cells, 4 days; for GI50: Homo sapiens, K562, 96 h, half-maximal growth inhibition; for K-562 TGI: total growth inhibition. The gist of the method:
as §2

BRD3, sequence (Q15059 20-477): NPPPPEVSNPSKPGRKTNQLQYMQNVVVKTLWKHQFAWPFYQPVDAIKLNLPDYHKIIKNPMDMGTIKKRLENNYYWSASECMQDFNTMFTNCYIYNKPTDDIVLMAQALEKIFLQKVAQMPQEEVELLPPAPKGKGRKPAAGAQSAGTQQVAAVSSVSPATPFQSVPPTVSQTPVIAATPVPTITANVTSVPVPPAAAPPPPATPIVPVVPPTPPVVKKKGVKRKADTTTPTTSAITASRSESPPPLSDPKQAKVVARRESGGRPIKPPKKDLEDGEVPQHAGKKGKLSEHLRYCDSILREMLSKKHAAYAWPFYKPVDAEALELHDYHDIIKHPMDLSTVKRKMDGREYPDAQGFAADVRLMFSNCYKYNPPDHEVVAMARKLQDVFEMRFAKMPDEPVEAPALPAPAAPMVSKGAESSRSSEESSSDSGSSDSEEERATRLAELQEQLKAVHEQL
BRD2, sequence (P25440 60-472): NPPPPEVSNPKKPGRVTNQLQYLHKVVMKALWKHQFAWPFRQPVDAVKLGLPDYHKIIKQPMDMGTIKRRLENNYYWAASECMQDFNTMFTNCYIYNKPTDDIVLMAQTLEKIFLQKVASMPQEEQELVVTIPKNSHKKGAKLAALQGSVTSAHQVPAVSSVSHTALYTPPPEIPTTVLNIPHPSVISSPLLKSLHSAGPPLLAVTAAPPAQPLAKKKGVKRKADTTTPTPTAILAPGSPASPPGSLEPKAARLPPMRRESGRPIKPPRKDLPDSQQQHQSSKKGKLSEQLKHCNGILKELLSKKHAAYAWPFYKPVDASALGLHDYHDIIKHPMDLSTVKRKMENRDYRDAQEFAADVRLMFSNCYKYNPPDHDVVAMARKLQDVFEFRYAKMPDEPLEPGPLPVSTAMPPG
CREBBP, sequence (Q92793 1081-1197): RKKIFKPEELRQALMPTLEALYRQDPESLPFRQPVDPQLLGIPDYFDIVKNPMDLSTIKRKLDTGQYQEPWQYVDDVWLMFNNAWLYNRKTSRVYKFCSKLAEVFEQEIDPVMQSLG

As for `Cc1cc(N2C(=O)c3ccn(C(=O)N(C)C)c3C2c2ccc(Cl)cc2)cn2c(C)nnc12` (stereo not drawn) [Example 24, 6-(4-chlorophenyl)-5-(3,8-dimethyl-[1,2,4]triazolo[4,3-a]pyridin-6-yl)-N,N-dimethyl-4-oxo-5,6-dihydropyrrolo[3,4-b]pyrrole-1(4H)-carboxamide], the IC50 amounted to 13300 nM at CREBBP, 87 nM on BRD3, 220 nM on BRD2 and 80 nM on BRD4. In addition, the GI50 with MV-4-11 was found to be 92.8 nM; in the assay with THP-1, 96.4 nM; in the assay with K-562 it was 527 nM. Further, the “MV-4-11 TGI” value with MV-4-11 came to 152 nM. In the assay on THP-1, the “THP-1 TGI” value was determined as 267.5 nM. Besides, in the assay on K-562, the “K-562 TGI” value was greater than 10000 nM.

For the molecule `Cc1c[nH]c2c1C(=O)N(c1cc(C)c3nnc(C)n3c1)C2c1ccc(Cl)cc1` (stereo not drawn) [Example 3, 6-(4-chlorophenyl)-5-(3,8-dimethyl-[1,2,4]triazolo[4,3-a]pyridin-6-yl)-3-methyl-5,6-dihydropyrrolo[3,4-b]pyrrol-4(1H)-one], the concentration for half-maximal inhibition (IC50) was 8200 nM on CREBBP, 16 nM at BRD3, 24 nM at BRD2 and 14 nM at BRD4. The GI50 was 7.68 nM with MV-4-11, 15.7 nM in the assay with THP-1 and 55.4 nM in the assay on K-562. In the assay with MV-4-11, the “MV-4-11 TGI” value was found to be 18.75 nM. Further, in the assay with THP-1, the “THP-1 TGI” value was 36.9 nM. Moreover, the “K-562 TGI” value in the assay with K-562 is greater than 10000 nM.

On to `CCOC(=O)n1cc(C)c2c1C(c1ccc(Cl)cc1)N(c1cc(C)c3nnc(C)n3c1)C2=O` (stereo not drawn) [Example 11, Ethyl 6-(4-chlorophenyl)-5-(3,8-dimethyl-[1,2,4]triazolo[4,3-a]pyridin-6-yl)-3-methyl-4-oxo-5,6-dihydropyrrolo[3,4-b]pyrrole-1(4H)-carboxylate], for which the IC50 is 7300 nM at CREBBP, 50 nM at BRD3, 39 nM on BRD2 and 38 nM at BRD4. For the same molecule, the GI50 in the assay on MV-4-11 worked out at 18.7 nM; in the assay on THP-1, 26 nM; in the assay on K-562 it was 113 nM. The “MV-4-11 TGI” value in the assay on MV-4-11 is 31.55 nM. For the same molecule, the “THP-1 TGI” value in the assay on THP-1 was determined as 58.95 nM. Further, the “K-562 TGI” value in the assay on K-562 is greater than 10000 nM.

As to `COc1cccc(-c2cc3c(n2C)C(c2ccc(Cl)cc2)N(c2cc(C)c(=O)n(C)c2)C3=O)n1` (stereo not drawn) [Example 59, 6-(4-chlorophenyl)-5-(1,5-dimethyl-6-oxo-1,6-dihydropyridin-3-yl)-2-(6-methoxypyridin-2-yl)-1-methyl-5,6-dihydropyrrolo[3,4-b]pyrrol-4(1H)-one], the IC50 came to 940 nM at CREBBP, 78 nM at BRD3, 80 nM on BRD2 and 72 nM on BRD4. The results for the GI50 in the assay on MV-4-11, with THP-1 and in the assay with K-562 were 74 nM, 86.3 nM and 297 nM, respectively. Further, the “MV-4-11 TGI” value in the assay with MV-4-11 worked out at 106 nM. The “THP-1 TGI” value in the assay with THP-1 was determined as 136 nM. Further, the “K-562 TGI” value with K-562 is greater than 10000 nM.

Turning to `Cc1cn(C2COC2)c2c1C(=O)N(c1cc(C)c3nnc(C)n3c1)C2c1ccc(Cl)cc1` (stereo not drawn) [Example 6, 6-(4-chlorophenyl)-5-(3,8-dimethyl-[1,2,4]triazolo[4,3-a]pyridin-6-yl)-3-methyl-1-(oxetan-3-yl)-5,6-dihydropyrrolo[3,4-b]pyrrol-4(1H)-one], the IC50 on CREBBP was determined as 6000 nM; at BRD3, 23 nM; on BRD2, 40 nM; at BRD4, 17 nM. The GI50 in the assay with MV-4-11 stood at 6.74 nM; with THP-1, 10.6 nM; with K-562 it was 50.5 nM. Also, the “MV-4-11 TGI” value with MV-4-11 was 21.4 nM. Moreover, in the assay with THP-1, the “THP-1 TGI” value came out at 29.25 nM. In the assay on K-562, the “K-562 TGI” value was greater than 10000 nM.

As for `Cc1cc(N2C(=O)c3ccn(C)c3C2c2ccc(Cl)cc2)cn(C)c1=O` (stereo not drawn) [Example 72, 6-(4-chlorophenyl)-5-(1,5-dimethyl-6-oxo-1,6-dihydropyridin-3-yl)-1-methyl-5,6-dihydropyrrolo[3,4-b]pyrrol-4(1H)-one], the 50% inhibitory concentration (IC50) at CREBBP is 1430 nM; at BRD3, 90.8 nM; on BRD2 it was 170 nM; on BRD4, 89.7 nM. For the same molecule, the GI50 in the assay with MV-4-11 amounted to 76.4 nM; in the assay with THP-1, 159 nM; in the assay with K-562, 294 nM. Moreover, in the assay with MV-4-11, the “MV-4-11 TGI” value came to 125 nM. In the assay on THP-1, the “THP-1 TGI” value was 301 nM. In addition, the “K-562 TGI” value in the assay with K-562 was greater than 10000 nM.

On to `Cc1cn(C(=O)N(C)C)c2c1C(=O)N(c1cc(C)c3nnc(C)n3c1)C2c1ccc(Cl)cc1` (stereo not drawn) [Example 10, 6-(4-chlorophenyl)-5-(3,8-dimethyl-[1,2,4]triazolo[4,3-a]pyridin-6-yl)-N,N,3-trimethyl-4-oxo-5,6-dihydropyrrolo[3,4-b]pyrrole-1(4H)-carboxamide], for which the IC50 on CREBBP was determined as 14500 nM; at BRD3, 34 nM; at BRD2 it was 55 nM; on BRD4, 33 nM. Besides, the GI50 in the assay on MV-4-11 was 19.4 nM; in the assay with THP-1, 29.8 nM; in the assay with K-562 it was 102 nM. The “MV-4-11 TGI” value with MV-4-11 was determined as 36.25 nM. Besides, the “THP-1 TGI” value with THP-1 is 69.85 nM. Moreover, the “K-562 TGI” value in the assay with K-562 is greater than 10000 nM.

For the molecule `COCC(=O)N1CC(n2cc(C)c3c2C(c2ccc(Cl)cc2)N(c2cc(C)c4nnc(C)n4c2)C3=O)C1` (stereo not drawn) [Example 12, 6-(4-chlorophenyl)-5-(3,8-dimethyl-[1,2,4]triazolo[4,3-a]pyridin-6-yl)-1-(1-(2-methoxyacetyl)azetidin-3-yl)-3-methyl-5,6-dihydropyrrolo[3,4-b]pyrrol-4(1H)-one], the 50% inhibitory concentration (IC50) on CREBBP is 23900 nM; on BRD3, 52 nM; at BRD2 it was 80 nM; at BRD4 it was 54 nM. Further, the concentration for 50% growth inhibition (GI50) worked out at 74.8 nM in the assay on MV-4-11, 219 nM with THP-1 and 1050 nM in the assay with K-562. In the assay with MV-4-11, the “MV-4-11 TGI” value is 149 nM. Moreover, the “THP-1 TGI” value with THP-1 turned out to be 618.5 nM. Moreover, in the assay on K-562, the “K-562 TGI” value was greater than 10000 nM.

As for `Cc1cc(N2C(=O)c3cc(C4CC4)n(C)c3C2c2ccc(Cl)cc2)cn(C)c1=O` (stereo not drawn) [Example 68, 6-(4-chlorophenyl)-2-cyclopropyl-5-(1,5-dimethyl-6-oxo-1,6-dihydropyridin-3-yl)-1-methyl-5,6-dihydropyrrolo[3,4-b]pyrrol-4(1H)-one], the half-inhibitory concentration (IC50) on CREBBP amounted to 620 nM; on BRD3 it was 52.2 nM; at BRD2, 67.2 nM; on BRD4, 63.2 nM. The 50% growth inhibitory concentration (GI50) worked out at 28.7 nM in the assay with MV-4-11, 46.8 nM in the assay with THP-1 and 148 nM in the assay with K-562. Further, in the assay with MV-4-11, the “MV-4-11 TGI” value stood at 51.7 nM. The “THP-1 TGI” value with THP-1 was 96 nM. Also, the “K-562 TGI” value with K-562 is greater than 10000 nM.

For the molecule `Cn1cc(N2C(=O)c3cc(-c4cccn(C)c4=O)n(C4CC4)c3C2c2ccc(Cl)cc2)cc(Cl)c1=O` (stereo not drawn) [Example 64, 5-(5-chloro-1-methyl-6-oxo-1,6-dihydropyridin-3-yl)-6-(4-chlorophenyl)-1-cyclopropyl-2-(1-methyl-2-oxo-1,2-dihydropyridin-3-yl)-5,6-dihydropyrrolo[3,4-b]pyrrol-4(1H)-one], the concentration for half-maximal inhibition (IC50) on CREBBP turned out to be 1500 nM; on BRD3, 82 nM; on BRD2 it was 50 nM; at BRD4, 85 nM. Besides, the figures for the concentration for 50% growth inhibition (GI50) in the assay on MV-4-11, in the assay on THP-1 and with K-562 were 118 nM, 109 nM and 353 nM, respectively. Moreover, the “MV-4-11 TGI” value in the assay with MV-4-11 was 196 nM. Also, in the assay with THP-1, the “THP-1 TGI” value was 215.5 nM. In addition, the “K-562 TGI” value with K-562 is greater than 10000 nM.

Take `Cc1cn(CCO)c2c1C(=O)N(c1cc(C)c3nnc(C)n3c1)C2c1ccc(Cl)cc1` (stereo not drawn) [Example 14, 6-(4-chlorophenyl)-5-(3,8-dimethyl-[1,2,4]triazolo[4,3-a]pyridin-6-yl)-1-(2-hydroxyethyl)-3-methyl-5,6-dihydropyrrolo[3,4-b]pyrrol-4(1H)-one]: the 50% inhibitory concentration (IC50) at CREBBP was determined as 6600 nM; at BRD3, 25 nM; at BRD2, 23 nM; on BRD4 it was 22 nM. Moreover, the values for the GI50 in the assay on MV-4-11, in the assay on THP-1 and in the assay with K-562 were 14.6 nM, 35.6 nM and 115 nM, respectively. Moreover, the “MV-4-11 TGI” value in the assay with MV-4-11 was 30.85 nM. For the same molecule, the “THP-1 TGI” value in the assay with THP-1 was determined as 81.55 nM. Besides, the “K-562 TGI” value with K-562 is greater than 10000 nM.

Consider `Cc1cc(N2C(=O)c3cc(-c4ccccn4)n(C)c3C2c2ccc(Cl)cc2)cn(C)c1=O` (stereo not drawn) [Example 52, 6-(4-chlorophenyl)-5-(1,5-dimethyl-6-oxo-1,6-dihydropyridin-3-yl)-1-methyl-2-(pyridin-2-yl)-5,6-dihydropyrrolo[3,4-b]pyrrol-4(1H)-one], for which the IC50 on CREBBP was 720 nM; at BRD3, 54 nM; at BRD2 it was 67 nM; at BRD4, 55.3 nM. Also, the GI50 came out at 872 nM with MV-4-11, 776 nM with THP-1 and 2750 nM in the assay on K-562. Besides, the “MV-4-11 TGI” value in the assay on MV-4-11 is 2355 nM. Moreover, in the assay with THP-1, the “THP-1 TGI” value came out at 2630 nM. Further, in the assay on K-562, the “K-562 TGI” value is greater than 10000 nM.
